We go through 20 molecules from patent US8716303B2, “N-(hetero)aryl-pyrrolidine derivatives of pyrazol-4-yl-pyrrolo[2,3-d]pyrimidines and pyrrol-3-yl-pyrrolo[2,3-d]pyrimidines as janus kinase inhibitors” (Incyte Corporation, priority 2009, dated 2014).

Experiment [1] deals with T1, human JAK1 (a.a. 837-1142) (Homo sapiens, UniProt P23458).
T1 construct: human JAK1 (a.a. 837-1142); His tag (N); made in house; host or cells: insect cells (baculovirus)
Put plainly: In vitro JAK kinase assay (HTRF, phosphorylation of a biotinylated peptide), JAK1. Type of experiment: biochemical. The protocol: (§1) Compounds herein were tested for inhibitory activity of JAK targets according to the following in vitro assay described in Park et al., Analytical Biochemistry 1999, 269, 94-104. The catalytic domains of human JAK1 (a.a. 837-1142), Jak2 (a.a. 828-1132) and Jak3 (a.a. 781-1124) with an N-terminal His tag were expressed using baculovirus in insect cells and purified. The catalytic activity of JAK1, JAK2 or JAK3 was assayed by measuring the phosphorylation of a biotinylated peptide. The phosphorylated peptide was detected by homogenous time resolved fluorescence (HTRF). IC50s of compounds were measured for each kinase in the 40 microL reactions that contain the enzyme, ATP and 500 nM peptide in 50 mM Tris (pH 7.8) buffer with 100 mM NaCl, 5 mM DTT, and 0.1 mg/mL (0.01%) BSA. The ATP concentration in the reactions was 90 μM for Jak1, 30 μM for Jak2 and 3 μM for Jak3 for Km conditions. For the 1 mM IC50 measurements, ATP concentration in the reactions was 1 mM. Reactions were carried out at RT for 1 h and then stopped with 20 μL 45 mM EDTA, 300 nM SA-APC, 6 nM Eu-Py20 in assay buffer (Perkin Elmer, Boston, Mass.). Binding to the Europium labeled antibody took place for 40 min and HTRF signal was measured on a Fusion plate reader (Perkin Elmer, Boston, Mass.).
(§2) Compounds herein were tested for inhibitory activity of JAK1 and JAK2 targets according to the assay of Example A (experiments run at Km or 1 mM as indicated). The symbol “+” indicates an IC50<50 nM; the symbol “++” indicates an IC50≧50 and ≦100 nM; and the symbol “+++” indicates an IC50>100 and ≦500 nM.
On the technique in general: In TR-FRET formats the signal depends on donor and acceptor labels being close together.

Another experiment has as its target T2, Jak2 (a.a. 828-1132) (Homo sapiens, UniProt O60674).
T2 construct: Jak2 (a.a. 828-1132); His tag (N); made in house; host or cells: insect cells (baculovirus)
The experiment in a line: In vitro JAK kinase assay (HTRF, phosphorylation of a biotinylated peptide), JAK2, reported as JAK2/JAK1 ratio. Format: biochemical. The procedure: as §1, §2

[2] abbreviates: Assay Conditions Km (ATP 90 μM for Jak1).
Where [3] appears, read: Assay Conditions Km (ATP 90 μM for Jak1, 30 μM for Jak2).

Each structure is given as a SMILES string. Counter-ions that a name gives are not always drawn.

T2 sequence (O60674 828-1132): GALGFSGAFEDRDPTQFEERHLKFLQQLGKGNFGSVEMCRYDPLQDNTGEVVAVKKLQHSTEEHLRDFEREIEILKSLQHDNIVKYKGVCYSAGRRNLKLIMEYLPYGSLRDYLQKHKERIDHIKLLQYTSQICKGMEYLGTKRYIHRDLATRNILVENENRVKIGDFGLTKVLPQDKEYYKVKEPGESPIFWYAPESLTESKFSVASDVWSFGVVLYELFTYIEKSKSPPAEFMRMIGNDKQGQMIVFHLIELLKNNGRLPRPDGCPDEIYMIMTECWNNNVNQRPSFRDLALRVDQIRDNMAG
T1 sequence (P23458 849-1154): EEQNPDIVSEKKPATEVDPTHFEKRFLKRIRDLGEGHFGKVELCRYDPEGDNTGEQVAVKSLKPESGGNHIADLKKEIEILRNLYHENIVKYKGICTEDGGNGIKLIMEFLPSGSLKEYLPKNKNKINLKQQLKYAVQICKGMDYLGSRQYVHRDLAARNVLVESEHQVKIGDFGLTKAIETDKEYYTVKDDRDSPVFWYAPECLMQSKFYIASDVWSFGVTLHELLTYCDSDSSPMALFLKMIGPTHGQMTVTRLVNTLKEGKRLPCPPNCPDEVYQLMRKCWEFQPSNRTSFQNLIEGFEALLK

The IC50 is the midpoint of a concentration-inhibition curve. A higher IC50 goes with weaker potency. As for `CCS(=O)(=O)c1ccc(F)c(N2CC[C@H]([C@H](CC#N)n3cc(-c4ncnc5[nH]ccc45)cn3)C2)n1` [Example 93, (3S)-3-{(3S)-1-[6-(ethylsulfonyl)-3-fluoropyridin-2-yl]pyrrolidin-3-yl}-3-[4-(7H-pyrrolo[2,3-d]pyrimidin-4-yl)-1H-pyrazol-1-yl]propanenitrile trifluoroacetate], the IC50 in experiment [1] (Assay Conditions 1 mM ATP) is less than 50 nM. The “JAK2/JAK1 IC50 ratio” value on Jak2 (a.a. 828-1132) (Assay Conditions 1 mM ATP) was found to be 5.3.
For `N#CCC(C1CCN(c2nc3cccc(CO)c3o2)C1)n1cc(-c2ncnc3[nH]ccc23)cn1` (single isomer, unassigned) [Example 166, 3-{1-[7-(hydroxymethyl)-1,3-benzoxazol-2-yl]pyrrolidin-3-yl}-3-[4-(7H-pyrrolo[2,3-d]pyrimidin-4-yl)-1H-pyrazol-1-yl]propanenitrile] the same measures were less than 50 nM and more than 8.7.
In the same order, the values of `N#CCC(C1CCN(c2ncc3c(c2C#N)SCC3)C1)n1ccc(-c2ncnc3[nH]ccc23)c1` (single isomer, unassigned) [Example 174-2, 6-(3-{2-cyano-1-[3-(7H-pyrrolo[2,3-d]pyrimidin-4-yl)-1H-pyrrol-1-yl]ethyl}pyrrolidin-1-yl)-2,3-dihydrothieno[3,2-c]pyridine-7-carbonitrile] are less than 50 nM and 11.1.
For `N#CCC(C1CCN(c2nc3cccnc3o2)C1)n1ccc(-c2ncnc3[nH]ccc23)c1` (single isomer, unassigned) [Example 33, 3-(1-[1,3]oxazolo[5,4-b]pyridin-2-ylpyrrolidin-3-yl)-3-[3-(7H-pyrrolo[2,3-d]pyrimidin-4-yl)-1H-pyrrol-1-yl]propanenitrile phosphate] the same measures were less than 50 nM and 34.
As for `COCc1c(F)cnc(N2CC[C@H]([C@H](CC#N)n3cc(-c4ncnc5[nH]ccc45)cn3)C2)c1C#N` [Example 95, 2-((3S)-3-{(1S)-2-cyano-1-[4-(7H-pyrrolo[2,3-d]pyrimidin-4-yl)-1H-pyrazol-1-yl]ethyl}pyrrolidin-1-yl)-5-fluoro-4-(methoxymethyl)nicotinonitrile bis(trifluoroacetate)], in experiment [1] (Assay Conditions 1 mM ATP), the IC50 was less than 50 nM. In addition, the “JAK2/JAK1 IC50 ratio” value at Jak2 (a.a. 828-1132) (Assay Conditions 1 mM ATP) was determined as 16.4.
`Cc1cnc2oc(N3CCC(C(CC#N)n4cc(-c5ncnc6[nH]ccc56)cn4)C3)nc2c1` (single isomer, unassigned) [Example 14, 3-[1-(6-methyl[1,3]oxazolo[5,4-b]pyridin-2-yl)pyrrolidin-3-yl]-3-[4-(7H-pyrrolo[2,3-d]pyrimidin-4-yl)-1H-pyrazol-1-yl]propanenitrile] came in with an IC50 in experiment [1] (setting [2]) of less than 50 nM. Also, the “JAK2/JAK1 IC50 ratio” value on Jak2 (a.a. 828-1132) (setting [3]) was 4.
The molecule `N#CC[C@@H]([C@H]1CCN(c2ncc(F)cc2C#N)C1)n1cc(-c2ncnc3[nH]ccc23)cn1` [Example 108, 2-((S)-3-((S)-1-(4-(7H-pyrrolo[2,3-d]pyrimidin-4-yl)-1H-pyrazol-1-yl)-2-cyanoethyl)pyrrolidin-1-yl)-5-fluoronicotinonitrile trifluoroacetate salt] returned an IC50 in experiment [1] (Assay Conditions 1 mM ATP) of less than 50 nM. In addition, the “JAK2/JAK1 IC50 ratio” value on Jak2 (a.a. 828-1132) (Assay Conditions 1 mM ATP) came to 5.7.
The molecule `COCc1ccnc(N2CC[C@H]([C@H](CC#N)n3cc(-c4ncnc5[nH]ccc45)cn3)C2)c1C#N` [Example 96, 2-((3S)-3-{(1S)-2-cyano-1-[4-(7H-pyrrolo[2,3-d]pyrimidin-4-yl)-1H-pyrazol-1-yl]ethyl}pyrrolidin-1-yl)-4-(methoxymethyl)nicotinonitrile tris(trifluoroacetate)] showed an IC50 in experiment [1] (Assay Conditions 1 mM ATP) of less than 50 nM. Further, at Jak2 (a.a. 828-1132) (Assay Conditions 1 mM ATP), the “JAK2/JAK1 IC50 ratio” value was found to be 16.3.
For the molecule `N#CCC(C1CCN(c2nc3cnccc3o2)C1)n1cc(-c2ncnc3[nH]ccc23)cn1` (single isomer, unassigned) [Example 11, 3-(1-[1,3]oxazolo[4,5-c]pyridin-2-ylpyrrolidin-3-yl)-3-[4-(7H-pyrrolo[2,3-d]pyrimidin-4-yl)-1H-pyrazol-1-yl]propanenitrile], the IC50 in experiment [1] (setting [2]) is less than 50 nM. Also, the “JAK2/JAK1 IC50 ratio” value at Jak2 (a.a. 828-1132) (setting [3]) is 2.9.
As for `Cn1cc(Cl)nc(N2CCC(C(CC#N)n3cc(-c4ncnc5[nH]ccc45)cn3)C2)c1=O` (racemic) [Example 36, ±3-[1-(6-chloro-4-methyl-3-oxo-3,4-dihydropyrazin-2-yl)pyrrolidin-3-yl]-3-[4-(7H-pyrrolo[2,3-d]pyrimidin-4-yl)-1H-pyrazol-1-yl]propanenitrile trifluoroacetate], in experiment [1] (Assay Conditions 1 mM ATP), the IC50 was 50 to 100 nM. Moreover, the “JAK2/JAK1 IC50 ratio” value on Jak2 (a.a. 828-1132) (Assay Conditions 1 mM ATP) is 6.
For `N#CC[C@@H]([C@H]1CCN(c2nc(S(=O)(=O)CC(F)(F)F)c(F)cc2F)C1)n1cc(-c2ncnc3[nH]ccc23)cn1` [Example 131, (3S)-3-((3S)-1-{3,5-difluoro-6-[(2,2,2-trifluoroethyl)-sulfonyl]pyridin-2-yl}pyrrolidin-3-yl)-3-[4-(7H-pyrrolo[2,3-d]pyrimidin-4-yl)-1H-pyrazol-1-yl]propanenitrile trifluoroacetate] the same measures were less than 50 nM and 8.1.
For `CSc1ccnc(N2CC[C@H]([C@H](CC#N)n3cc(-c4ncnc5[nH]ccc45)cn3)C2)c1C#N` [Example 127, 2-((3S)-3-{(1S)-2-cyano-1-[4-(7H-pyrrolo[2,3-d]pyrimidin-4-yl)-1H-pyrazol-1-yl]ethyl}pyrrolidin-1-yl)-4-(methylthio)nicotinonitrile trifluoroacetate] the same measures were less than 50 nM and 11.0.
Regarding `N#CCC(C1CCN(c2nc(Br)cs2)C1)n1cc(-c2ncnc3[nH]ccc23)cn1` (centres unmarked) [Example 5, 3-[1-(4-bromo-1,3-thiazol-2-yl)pyrrolidin-3-yl]-3-[4-(7H-pyrrolo[2,3-d]pyrimidin-4-yl)-1H-pyrazol-1-yl]propanenitrile trifluoroacetate], the IC50 in experiment [1] (setting [2]) was less than 50 nM. At Jak2 (a.a. 828-1132) (setting [3]), the “JAK2/JAK1 IC50 ratio” value stood at 2.2.
For the molecule `N#CCC(C1CCN(c2nc3cccc(C#N)c3o2)C1)n1cc(-c2ncnc3[nH]ccc23)cn1` (single isomer, unassigned) [Example 160, 2-(3-{2-cyano-1-[4-(7H-pyrrolo[2,3-d]pyrimidin-4-yl)-1H-pyrazol-1-yl]ethyl}pyrrolidin-1-yl)-1,3-benzoxazole-7-carbonitrile], the 50% inhibitory concentration (IC50) in experiment [1] (Assay Conditions 1 mM ATP) is less than 50 nM. In addition, the “JAK2/JAK1 IC50 ratio” value on Jak2 (a.a. 828-1132) (Assay Conditions 1 mM ATP) was more than 11.4.
`N#CC[C@@H]([C@H]1CCN(c2nc(Cl)ccc2F)C1)n1cc(-c2ncnc3[nH]ccc23)cn1` [Example 94, (3S)-3-[(3S)-1-(6-chloro-3-fluoropyridin-2-yl)pyrrolidin-3-yl]-3-[4-(7H-pyrrolo[2,3-d]pyrimidin-4-yl)-1H-pyrazol-1-yl]propanenitrile trifluoroacetate] came in with an IC50 in experiment [1] (Assay Conditions 1 mM ATP) of less than 50 nM. The “JAK2/JAK1 IC50 ratio” value on Jak2 (a.a. 828-1132) (Assay Conditions 1 mM ATP) worked out at 17.9.
Take `N#CCC(C1CCN(c2nc3ncccc3o2)C1)n1cc(-c2ncnc3[nH]ccc23)cn1` (single isomer, unassigned) [Example 12, 3-(1-[1,3]oxazolo[4,5-b]pyridin-2-ylpyrrolidin-3-yl)-3-[4-(7H-pyrrolo[2,3-d]pyrimidin-4-yl)-1H-pyrazol-1-yl]propanenitrile]: the IC50 in experiment [1] (setting [2]) was less than 50 nM. In addition, the “JAK2/JAK1 IC50 ratio” value on Jak2 (a.a. 828-1132) (setting [3]) came out at 2.4.
In turn, `N#CC[C@@H]([C@H]1CCN(c2cccc(F)c2C#N)C1)n1cc(-c2ncnc3[nH]ccc23)cn1` [Example 54, 2-((3S)-3-{(1S)-2-cyano-1-[4-(7H-pyrrolo[2,3-d]pyrimidin-4-yl)-1H pyrazol-1-yl]ethyl}pyrrolidin-1-yl) 6-fluorobenzonitrile trifluoroacetate salt] returned an IC50 in experiment [1] (Assay Conditions 1 mM ATP) of less than 50 nM. In addition, at Jak2 (a.a. 828-1132) (Assay Conditions 1 mM ATP), the “JAK2/JAK1 IC50 ratio” value turned out to be 4.6.
For `N#CCC(C1CCN(c2scnc2C#N)C1)n1ccc(-c2ncnc3[nH]ccc23)c1` (racemic) [Example 149-2, 5-(3-{2-cyano-1-[3-(7H-pyrrolo[2,3-d]pyrimidin-4-yl)-1H-pyrrol-1-yl]ethyl}pyrrolidin-1-yl)-1,3-thiazole-4-carbonitrile] the same measures were less than 50 nM and 4.5.
For `N#CC[C@@H]([C@H]1CCN(c2ncc(CC(F)F)nc2C#N)C1)n1cc(-c2ncnc3[nH]ccc23)cn1` [Example 139, 3-((3S)-3-{(1S)-2-cyano-1-[4-(7H-pyrrolo[2,3-d]pyrimidin-4-yl)-1H-pyrazol-1-yl]ethyl}pyrrolidin-1-yl)-6-(2,2-difluoroethyl)pyrazine-2-carbonitrile trifluoroacetate], the IC50 in experiment [1] (Assay Conditions 1 mM ATP) is less than 50 nM.
Still for that read-out and setting: under `N#CC[C@@H]([C@H]1CCN(c2nc(Cl)c(F)cc2NC=O)C1)n1cc(-c2ncnc3[nH]ccc23)cn1` [Example 92, N-(2-((S)-3-((S)-1-(4-(7H-pyrrolo[2,3-d]pyrimidin-4-yl)-1H-pyrazol-1-yl)-2-cyanoethyl)pyrrolidin-1-yl)-6-chloro-5-fluoropyridin-3-yl)formamide trifluoroacetate] stands less than 50 nM.
